Measured values published in a melting point compilation (Tetko et al.).

Row | melting point | Structure (SMILES)
1 | 108 to 110 °C | COC(=O)CCNc1nc2ccccc2o1
2 | 45 to 47 °C | COC(=O)CNc1ccccc1
3 | 131 to 133 °C | Cc1cccc(-n2ncc(C(=O)O)n2)c1
4 | 200 to 202 °C | NS(=O)(=O)c1cn[nH]c1
5 | 169 to 171 °C | CCOC(=O)C1=C(CCl)NC(=O)NC1c1ccc(OC)cc1 (stereo not drawn)
6 | 30 to 32 °C | O=C(CC1CCCC1)c1ccc(Oc2ccccc2)cc1
7 | 178 to 182 °C | NC(=O)Nc1ccc2c(c1)OCO2
8 | 203 to 205 °C | Cc1ccc2c(c1)c(=O)n(C)c1nnc(CCl)n21
9 | 144 to 146 °C | OC1CNc2c(ccc3ccccc23)C1 (stereo not drawn)
10 | 81 to 83 °C | C=CC(=O)Nc1ccc(N(C)C(C)C)c(F)c1
11 | 151 to 153 °C | COc1ccc2nc(CCl)[nH]c2n1
12 | 155 to 157 °C | N#Cc1c(NC(=O)CCl)oc(-c2ccccc2)c1-c1ccccc1
13 | 165 to 167 °C | Cc1nn(C)c(C(F)F)c1C(=O)O
14 | 186 to 188 °C | O=C(O)c1cnn(-c2ccccn2)c1
15 | 161 to 163 °C | CN1CC(=O)Nc2cccnc21
16 | 53 to 55 °C | Cc1ccc(-c2ccc(C=O)o2)cc1
17 | 101 to 103 °C | O=C(CO)NCc1ccccc1
18 | 80 to 82 °C | O=[N+]([O-])c1cc(S(=O)(=O)Cl)c(Br)cc1F
19 | 77 to 79 °C | COc1ccc(C)cc1NCCC(=O)O
20 | 135 to 137 °C | CC1CCC(NC(=O)C(C)Cl)CC1 (stereo not drawn)
21 | 259 to 261 °C | COc1ccc(-c2nnn(CC(=O)O)n2)cc1OC
22 | 111 to 113 °C | OC(Cn1cncn1)c1ccc(Cl)cc1 (stereo not drawn)
23 | 78 to 80 °C | COc1cc2c(cc1C=O)OC(C)C2 (stereo not drawn)

Row | melting point | Structure (SMILES)
24 | 122 to 124 °C | Nc1onc(C2CCCC2)c1-c1ccc2c(c1)OCO2
25 | 162 to 164 °C | Nc1ccc(S(=O)(=O)Nc2ccc(F)cc2)cc1
26 | 59 to 61 °C | N#Cc1cc(F)cc(CO)c1
27 | 199 to 201 °C | CC(C)Oc1cccnc1C(=O)O
28 | 58 to 60 °C | NC(c1ccc(Cl)cc1)c1ccc(C(F)(F)F)cc1 (stereo not drawn)
29 | 195 to 197 °C | CCC(=O)N(c1nnc(S)s1)C1CC1
30 | 252 to 254 °C | NS(=O)(=O)c1ccc2c(c1)CC(=O)N2
31 | 99 to 101 °C | Nc1ccc(-c2cc[nH]n2)cc1
32 | 52 to 54 °C | Cc1nc(Cl)nc(Cl)c1[N+](=O)[O-]
33 | 100 to 102 °C | CCOc1ccc(-c2nn(-c3ccccc3)cc2C=O)cc1Cl
34 | 149 to 151 °C | Cc1ccc(S(=O)(=O)Cl)cc1C(=O)O
35 | 283 to 285 °C | Sc1ncc(-c2ccc(Cl)cc2)n1-c1ccccc1
36 | 203 to 205 °C | O=C(O)CSc1nccn1-c1ccc(Br)cc1
37 | 144 to 146 °C | N#CCSc1cccc(C(=O)O)c1
38 | 122 to 124 °C | Nc1cccc(Cl)c1-n1cncn1
39 | 86 to 88 °C | N#Cc1ccc(SCCC(=O)O)cc1
40 | 44 to 46 °C | CN(C)Cc1ccc(-c2ccccc2C#N)cc1
41 | 153 to 155 °C | O=C(O)c1ccnc(OC2CCC2)c1
42 | 188 to 190 °C | Cc1ccn2c(N)c(-c3ccc(F)cc3)nc2c1
43 | 99 to 101 °C | O=S(=O)(c1ccc(N=C=S)cc1)N1CCOCC1
44 | 293 to 295 °C | Sc1nc(-c2cccs2)c(-c2cccs2)[nH]1
45 | 85 to 87 °C | NC(=O)CCOc1ccccc1F
46 | 189 to 191 °C | O=C(O)C1CC2CCCCC2N1C(=O)c1ccc(F)cc1F (stereo not drawn)

Row | melting point | Structure (SMILES)
47 | 106 to 110 °C | O=C(O)Cc1csc(-c2cccc(Br)c2)n1
48 | 134 to 136 °C | O=[N+]([O-])c1ccc(Br)c2ccncc12
49 | 352 to 354 °C | Nc1ccc(-c2nc3ccccc3[nH]2)cn1
50 | 131 to 133 °C | Cc1cccc2c(Cl)ncnc12
51 | 184 to 186 °C | Cc1cc(C)n(-c2ccc(C(=O)O)cc2F)n1
52 | 187 to 189 °C | COc1cc(OC)c(C(=O)NO)cc1OC
53 | 69 to 71 °C | Cn1cc(-c2cccc(CN)c2)cn1
54 | 151 to 153 °C | Cc1nn(CCO)c(C(F)(F)F)c1C(=O)O
55 | 159 to 161 °C | CN(C)C=Nc1[nH]ncc1C#N
56 | 70 to 72 °C | CCOc1ccccc1CCC(=O)O
57 | 122 to 124 °C | COC(=O)C(C#N)=NO
58 | 103 to 105 °C | CC1(C)CCc2[nH]c3ccccc3c2C1
59 | 176 to 178 °C | NC(=O)Nc1ccc(Cl)c(N)c1
60 | 276 to 278 °C | O=C(O)c1cc(-c2ccncc2)on1
61 | 80 to 82 °C | CC(C)(C)c1ccc(N2CCC(N)CC2)cc1
62 | 110 to 112 °C | NC(=O)NCC(F)(F)F
63 | 189 to 191 °C | Cc1n[nH]c2cc(N)ccc12
64 | 139 to 141 °C | Cc1cccc(C(=O)NO)c1O
65 | 83 to 85 °C | COC(=O)c1cccc(S(=O)(=O)N2CCCCC2)c1
66 | 142 to 144 °C | Nc1nnc(CCOc2ccccc2)o1
67 | 74 to 76 °C | c1ccc(-c2ccc3[nH]ccc3c2)cc1
68 | 180 to 182 °C | O=C(O)c1ccc(Cl)o1
69 | 95 to 97 °C | COc1ccc(NC#N)cc1Cl

Row | melting point | Structure (SMILES)
70 | 81 to 83 °C | Cc1nc(Cl)nc(N(C)C)n1
71 | 113 to 115 °C | COc1cc(C(=O)Oc2ccc(C=O)cc2)cc(OC)c1OC
72 | 108 to 110 °C | O=C(c1cccnc1)c1ccc2c(c1)CCO2
73 | 86 to 88 °C | O=C(O)C1CCCN(c2ncccc2C(F)(F)F)C1 (stereo not drawn)
74 | 87 to 89 °C | CC(O)c1ccc(CN)cc1 (stereo not drawn)
75 | 134 to 136 °C | Nc1cccc(NC(=O)c2cccc(C(F)(F)F)c2)c1
76 | 113 to 115 °C | Cn1c(S)nnc1-c1ccc(Cl)cc1
77 | 170 to 172 °C | Cc1ccc(NC(N)=O)cc1C
78 | 111 to 113 °C | CCCS(=O)(=O)Nc1ccc(N)cc1
79 | 64 to 66 °C | OC(c1cccnc1)C(F)(F)F (stereo not drawn)
80 | 68 to 70 °C | NCc1nc2cc(Cl)ccc2s1
81 | 51 to 53 °C | CC(C)CN(CC(C)C)C(=O)CC(=O)N(CC(C)C)CC(C)C
82 | 188 to 190 °C | O=C(O)C1CCCCN1C(=O)c1cccnc1 (stereo not drawn)
83 | 234 to 236 °C | NS(=O)(=O)Cc1cccc(C(=O)O)c1
84 | 228 to 230 °C | O=C1COc2ccc(C(=O)CCl)cc2N1
85 | 170 to 172 °C | O=C(O)c1ccc(S(=O)(=O)N2CCCc3ccccc32)cc1
86 | 106 to 110 °C | O=C(O)CCNS(=O)(=O)c1ccc2c(c1)CCCC2
87 | 151 to 153 °C | CC1(c2ccc(OC(F)(F)F)cc2)NC(=O)NC1=O (stereo not drawn)
88 | 170 to 172 °C | Nc1nc(CCl)nc(Nc2ccc(F)cc2)n1
89 | 92 to 94 °C | CCOC(O)=C1Nc2ccccc2C1=O
90 | 145 to 147 °C | COc1ccc(C(C)(C#N)NC(=O)C(F)(F)F)cc1OC (stereo not drawn)
91 | 139 to 141 °C | Cc1sc(=O)n(CC(=O)O)c1-c1ccc(F)cc1
92 | 93 to 95 °C | Cc1c(NC(=S)Nc2c(C)n(C)n(-c3ccccc3)c2=O)c(=O)n(-c2ccccc2)n1C

Row | melting point | Structure (SMILES)
93 | 154 to 156 °C | O=C(O)C1CCCN1C(=O)c1ccc([N+](=O)[O-])o1 (stereo not drawn)
94 | 165 to 167 °C | O=C(O)c1cc(OCc2ccccc2)ccc1O
95 | 129 to 131 °C | Nc1ncn(C2CCCCC2)n1
96 | 204 to 206 °C | Cc1c(C(=O)O)ccc2cnc(C3CC3)n12
97 | 49 to 51 °C | CCOC(=O)C(=O)c1cc(F)ccc1OC
98 | 151 to 153 °C | CN(C)C(=O)c1ccc(N)cc1
99 | 78 to 80 °C | N#Cc1cc(N)ccc1OCC(F)(F)F
100 | 65 to 67 °C | CC(C)c1cccc(OCC(=O)O)c1
101 | 70 to 72 °C | CSCc1nc(N)ccc1Cl
102 | 118 to 120 °C | COc1ccc(CC(=O)O)c(Cl)c1
103 | 223 to 225 °C | O=Cc1cn(-c2ccccc2)nc1-c1cc2ccccc2oc1=O
104 | 198 to 200 °C | O=C(CCCc1cccs1)Nc1cccc(C(=O)O)c1
105 | 111 to 113 °C | O=c1ccccn1CCOc1ccc(Br)cc1
106 | 64 to 66 °C | COCc1cccc(C(=O)O)c1
107 | 99 to 101 °C | NNC(=O)CNc1ccccc1F
108 | 122 to 124 °C | CC(C)(C)c1nc2ccc(S(=O)(=O)Cl)cc2s1
109 | 161 to 163 °C | CCOc1ccc(C(=O)NN)cc1OC
110 | 160 to 162 °C | O=C(O)CNC(=O)c1ccc(Br)cc1
111 | 184 to 186 °C | COc1ccc2nc(C(=O)O)ccc2c1
112 | 180 to 182 °C | O=C(O)c1ccc(CS(=O)(=O)c2ccccc2)o1
113 | 163 to 165 °C | NC(=O)COc1ccc(C(=O)CCl)cc1
114 | 69 to 71 °C | O=C(O)CC1CCSCC1
115 | 91 to 93 °C | O=C(O)CCCNC(=O)c1ccco1

Row | melting point | Structure (SMILES)
116 | 147 to 149 °C | CCC(C)[C@H](NC(=O)N1CCCC1)C(=O)O (stereo partly drawn)
117 | 156 to 158 °C | CC(=CC(=O)O)c1cccc(Cl)c1
118 | 251 to 253 °C | Nc1oc2ccc(F)cc2c(=O)c1C=O
119 | 210 to 212 °C | Cc1c[nH]c(=O)n1-c1ccccc1
120 | 99 to 101 °C | CCNC1=NCC(c2ccccc2)S1 (stereo not drawn)
121 | 32 to 34 °C | CN(C)C(=O)CO
122 | 84 to 86 °C | COc1ccccc1NCCC(=O)O
123 | 195 to 197 °C | O=C(O)c1cccc(-n2cc(Br)cn2)c1
124 | 74 to 76 °C | COc1cccc(-c2nonc2N)c1
125 | 135 to 137 °C | COc1cccc(Nc2nnc(SCC(=O)O)s2)c1
126 | 162 to 164 °C | Cc1cc(O)c(C(=O)O)cc1S(=O)(=O)Cl
127 | 157 to 161 °C | Cc1cccc(-c2nnc(S)o2)c1
128 | 124 to 126 °C | CC(=O)NC1CNc2ccccc2C1 (stereo not drawn)
129 | 113 to 115 °C | CN(C)c1ccnc(N)c1
130 | 108 to 110 °C | Cc1csc(=O)n1CCC(=O)O
131 | 116 to 118 °C | Cc1cccc(I)c1C(=O)O
132 | 124 to 126 °C | CC(CN(C)C(=O)OC(C)(C)C)C(N)=NO (stereo not drawn)
133 | 94 to 96 °C | CC(=O)c1ccc(OCC(=O)Nc2ccccc2)cc1
134 | 132 to 134 °C | CC(=O)Nc1ccc(C)cc1N
135 | 201 to 203 °C | O=C(O)C1CC(O)CN1C(=O)Cc1ccccc1F (stereo not drawn)
136 | 136 to 138 °C | O=C(O)Cc1csc(-c2ccc(Cl)s2)n1
137 | 191 to 193 °C | O=C(O)C1CCN(S(=O)(=O)Cc2ccccc2)CC1
138 | 167 to 169 °C | NC(=O)Cc1nc2ccccc2s1

Row | Structure (SMILES) | melting point
139 | CC(Oc1ccc(Br)cc1)C(=O)O (stereo not drawn) | 118 to 120 °C
140 | c1cc2[nH]ncc2cc1NC1CN2CCC1CC2 (stereo not drawn) | 192 to 194 °C
141 | O=C1NC2(CCNCC2)NC12CCCCC2 | 276 to 278 °C
142 | [N-]=[N+]=NC(=O)c1ccco1 | 60 to 62 °C
143 | O=c1[nH]nc(N2CCNCC2)c(=O)[nH]1 | 150 to 152 °C
